Read-outs that look alike come from different tables or passages of the source.
Key:
[1] = test system: S. aureus ATCC strains and MRSA; format: cell-based, Staphylococcus aureus
[2] = test system: Staphylococcus epidermidis; format: cell-based
Protocol: (§1) It was also tested whether compounds #63 and #285 can inhibit other coagulase-negative Staphylococcus (CNS) including S. epidermidis, S. hominis, etc. […].

Staphylococcus hominis = format: cell-based
Protocol: as §1

[3] = test system: Coagulase negative Staphylococcus; assay: Antibiotic susceptibility of coagulase negative Staphylococcus strains; format: cell-based
[4] = test system: MDR Acinetobacter baumannii; format: cell-based
Description: (§2) All these MDR-bacteria are at least resistant to two classes of the antibiotics among five groups and/or specific antibiotics including quinolones/fluorquinolones, carbapenems, cephalosporins, aminoglycosides and piperacillin-tazobactam.

MDR E. coli = format: cell-based
Description: as §2

Citrobacter koseri = assay: Antibiotic susceptibility of Citrobacter koseri strain; format: cell-based; conditions: Ck1 (Citrobacter koseri)
Description: as §2

[5] = test system: Enterobacter cloacae complex; assay: Antibiotic susceptibility of Enterobacter cloacae complex strain; format: cell-based; conditions: Ecc1 (Enterobacter cloacae complex)
Description: as §2

Morganella morganii = assay: Antibiotic susceptibility of Morganella morganii strain; format: cell-based; conditions: Mm1 (Morganella morganii)
Description: as §2

Klebsiella pneumonia = assay: Antibiotic susceptibility of Klebsiella pneumonia strains; format: cell-based
Description: as §2

[6] = CNS1 (Coagulase negative Staphylococcus)
[7] = CNS2 (Coagulase negative Staphylococcus)

C[C@H]1COc2c(N3CCN(C)CC3)c(F)cc3c(=O)c(C(=O)O)cn1c23 [LVX, levofloxacin]
Antibiotic susceptibility ([1]; S. aureus ATCC 25923): S
Antibiotic susceptibility ([1]; S. aureus ATCC 29213): S
Antibiotic susceptibility ([1]; S. aureus ATCC BAA 976): S
Antibiotic susceptibility ([1]; S. aureus ATCC BAA 977): S
Antibiotic susceptibility ([1]; S. aureus ATCC BAA 1026): R
Antibiotic susceptibility ([1]; Sa1 (MRSA)): R
Antibiotic susceptibility ([1]; Sa2 (MRSA)): R
Antibiotic susceptibility ([1]; Sa3 (MRSA)): R
Antibiotic susceptibility ([1]; Sa6 (MRSA)): R
Antibiotic susceptibility ([1]; Sa7 (MRSA)): S
Antibiotic susceptibility ([1]; Sa9 (MRSA)): R
Antibiotic susceptibility ([1]; Sa11 (MRSA)): R
Antibiotic susceptibility ([1]; Sa12 (MRSA)): R
Antibiotic susceptibility ([1]; Sa14 (MRSA)): R
Antibiotic susceptibility ([1]; Sa15 (MRSA)): R
Antibiotic susceptibility ([1]; Sa16 (MRSA)): R
Antibiotic susceptibility ([1]; Sa17 (MRSA)): R
Antibiotic susceptibility ([1]; Sa18 (MRSA)): R
Antibiotic susceptibility ([1]; Sa19 (MRSA)): S
Antibiotic susceptibility ([1]; Sa20 (MRSA)): R
Antibiotic susceptibility ([1]; Sa21 (MRSA)): S
Antibiotic susceptibility ([1]; Sa22 (MRSA)): S
Antibiotic susceptibility ([1]; Sa23 (MRSA)): S
Antibiotic susceptibility ([2]; Se1 (Staphylococcus epidermidis)): R
Antibiotic susceptibility ([2]; Se2 (Staphylococcus epidermidis)): S
Antibiotic susceptibility ([2]; Se3 (Staphylococcus epidermidis)): R
Antibiotic susceptibility ([2]; Se4 (Staphylococcus epidermidis)): R
Antibiotic susceptibility ([2]; Se5 (Staphylococcus epidermidis)): R
Antibiotic susceptibility (Staphylococcus hominis; Sh1 (Staphylococcus hominis)): R
Antibiotic susceptibility (Staphylococcus hominis; Sh2 (Staphylococcus hominis)): S
Antibiotic susceptibility (Staphylococcus hominis; Sh3 (Staphylococcus hominis)): S
Antibiotic susceptibility [3, 6]: S
Antibiotic susceptibility [3, 7]: R
Antibiotic susceptibility ([4]; Ab1 (Acinetobacter baumannii)): R
Antibiotic susceptibility ([4]; Ab2 (Acinetobacter baumannii)): I
Antibiotic susceptibility ([4]; Ab3 (Acinetobacter baumannii)): R
Antibiotic susceptibility ([4]; Ab4 (Acinetobacter baumannii)): R
Antibiotic susceptibility ([4]; Ab5 (Acinetobacter baumannii)): R
Antibiotic susceptibility (MDR E. coli; Ec1 (E. coli)): S
Antibiotic susceptibility (MDR E. coli; Ec2 (E. coli)): R
Antibiotic susceptibility (MDR E. coli; Ec3 (E. coli)): S
Antibiotic susceptibility (MDR E. coli; Ec4 (E. coli)): R
Antibiotic susceptibility (MDR E. coli; Ec5 (E. coli)): R
Antibiotic susceptibility (Citrobacter koseri): I
Antibiotic susceptibility [5]: S
Antibiotic susceptibility (Morganella morganii): R
Antibiotic susceptibility (Klebsiella pneumonia; Kp1 (Klebsiella pneumonia)): S
Antibiotic susceptibility (Klebsiella pneumonia; Kp6 (Klebsiella pneumonia)): R

O=C1CN(/N=C/c2ccc([N+](=O)[O-])o2)C(=O)N1 [NIT, Nitrofurantoin]
Antibiotic susceptibility ([1]; S. aureus ATCC 25923): S
Antibiotic susceptibility ([1]; S. aureus ATCC 29213): S
Antibiotic susceptibility ([1]; S. aureus ATCC BAA 976): S
Antibiotic susceptibility ([1]; S. aureus ATCC BAA 977): S
Antibiotic susceptibility ([1]; S. aureus ATCC BAA 1026): S
Antibiotic susceptibility ([1]; Sa1 (MRSA)): S
Antibiotic susceptibility ([1]; Sa2 (MRSA)): S
Antibiotic susceptibility ([1]; Sa3 (MRSA)): S
Antibiotic susceptibility ([1]; Sa6 (MRSA)): S
Antibiotic susceptibility ([1]; Sa7 (MRSA)): S
Antibiotic susceptibility ([1]; Sa9 (MRSA)): S
Antibiotic susceptibility ([1]; Sa11 (MRSA)): S
Antibiotic susceptibility ([1]; Sa12 (MRSA)): S
Antibiotic susceptibility ([1]; Sa14 (MRSA)): S
Antibiotic susceptibility ([1]; Sa15 (MRSA)): S
Antibiotic susceptibility ([1]; Sa16 (MRSA)): S
Antibiotic susceptibility ([1]; Sa17 (MRSA)): S
Antibiotic susceptibility ([1]; Sa18 (MRSA)): S
Antibiotic susceptibility ([1]; Sa19 (MRSA)): S
Antibiotic susceptibility ([1]; Sa20 (MRSA)): S
Antibiotic susceptibility ([1]; Sa21 (MRSA)): S
Antibiotic susceptibility ([1]; Sa22 (MRSA)): S
Antibiotic susceptibility ([1]; Sa23 (MRSA)): S
Antibiotic susceptibility [2]: S
Antibiotic susceptibility (Staphylococcus hominis): S
Antibiotic susceptibility [3, 6]: S
Antibiotic susceptibility [3, 7]: S
Antibiotic susceptibility ([4]; Ab1 (Acinetobacter baumannii)): R
Antibiotic susceptibility ([4]; Ab2 (Acinetobacter baumannii)): R
Antibiotic susceptibility ([4]; Ab3 (Acinetobacter baumannii)): R
Antibiotic susceptibility ([4]; Ab4 (Acinetobacter baumannii)): R
Antibiotic susceptibility ([4]; Ab5 (Acinetobacter baumannii)): R
Antibiotic susceptibility (MDR E. coli; Ec1 (E. coli)): S
Antibiotic susceptibility (MDR E. coli; Ec2 (E. coli)): S
Antibiotic susceptibility (MDR E. coli; Ec3 (E. coli)): S
Antibiotic susceptibility (MDR E. coli; Ec4 (E. coli)): S
Antibiotic susceptibility (MDR E. coli; Ec5 (E. coli)): S
Antibiotic susceptibility (Citrobacter koseri): R
Antibiotic susceptibility [5]: S
Antibiotic susceptibility (Morganella morganii): R
Antibiotic susceptibility (Klebsiella pneumonia; Kp1 (Klebsiella pneumonia)): S
Antibiotic susceptibility (Klebsiella pneumonia; Kp6 (Klebsiella pneumonia)): R

— patent US12502362B2, “Inhibitors of nucleotidyltransferase superfamily enzymes as antibiotics” (priority 2017, dated 2025)
